Measured values reported in patent US8361802B2, “Fluorescent ozone sensor” (University of Pittsburgh—Of the Commonwealth System of …, priority 2009, dated 2013).

Tests used:
[1] = Ozone detection in indoor air on adsorbent paper strips; settings: 500 nmol on adsorbent paper, photocopy room, eight hours
Description: One embodiment of the present invention can be a badge that contains compound 4 that may be worn by patients so their total ozone exposure can be continuously measured through the day. A proof-of-principle experiment was conducted with compound 4 and compound 1 as a comparative. A solution of compound 4 (500 nmol) in dimethylsulfoxide (DMSO) was absorbed on a piece of adsorbent paper and allowed to dry. The paper strips were stored in an office room that had two photocopiers and two laser printers. After eight hours, the paper strips were removed and placed in a vial that contained oH 7 buffer to elute the dyes. […] The deviation in these values is presumably because of photobleaching and the lack of specificity of compound 1 towards various ROS, including singlet oxygen.
Ozone detection in indoor air. FIG. 10 are photographic illustrations of results of Ozone detection tests in indoor air using the present invention. The top photograph is a Kimwipe® before placing into photocopy room for 8 hours. The bottom photographs are a Kimwipe® in buffer for absorbance and fluorescence measurement, wherein the left photograph is an indigo carmine taken in room light), and the right photograph is compound 4 taken under long-range UV lamp. One adsorbent paper (Kimwipe®) was cut into two 11×9 cm pieces. Solution A (50 μL, 500 nmol of compound 4) was added to one portion of the Kimwipe® and allowed to dry (FIG. 10, top right). Solution B (50 μL, 500 nmol of indigo carmine) was added to the other portion of the Kimwipe® and allowed to dry (FIG. 10, top left). After overnight drying in a laboratory drawer, the paper strips were moved to a poorly ventilated photocopy room (2 photocopiers and 2 laser printers) for 8 hours. The controls remained in the laboratory drawer. After 8 hours, the samples were placed into a scintillation vial, and the dyes were eluted with pH 7 buffer (6.0 mL) (˜5 min) before fluorescence and absorbance measurement. […] FIGS. 3C-D error bars were determined from the calculated mean and standard deviation (Prism 5.0a, GraphPad Software, Inc.).

[2] = Ozone detection method, fluorescence turn-on of sensor in aqueous buffer / cell culture media
Description: In order to develop a fluorescent method amenable to both biological and atmospheric detection, pH 7 buffer ([PO4^3−]=5 mM) is chosen to perform the conversion of sensor 4, such as homoallyl ether, to fluorescent compound 7. A solution of sensor 4 in 5:95 MeOH/pH 7 buffer at 24° C. is exposed to ozone, incubated at 37° C. for 1 hour to facilitate β-elimination, and formation of fluorescent compound 7 is observed (signal-to-background (S/B)=Sample B (28)/Sample A (0.35)=80) (FIG. 2a). For an ozone detection method in the presence of cells, the ozonolysis reaction is performed in a mixture of pH 7 buffer and RPMI-1640 cell culture media (3:1).
Ozone detection method. Solutions of compound 4 ([4]final=12.5 μM) in 5:95 MeOH/pH 7 buffer ([PO4^3−]=5 mM) solution (4.0 mL) were prepared, and the samples were exposed to ozone at 24° C. followed by 1 hour incubation at 37° C. before fluorescence measurement (except for the ambient air experiments). The concentration of ozone was 5 μM for these studies. Fluorescence spectra were recorded in a 1×1-cm disposable cuvette on a Jobin Yvon FluoroMax-3 spectrometer under the control of a Windows-based PC running FluorEssence software. The samples were excited at 497 nm and the emission intensities were collected at 523 nm. All spectra were corrected for emission intensity using the manufacturer supplied photomultiplier curves.
Ozone: Solution A (5.0 μL, [compound 4 or compound 8]final=12.5 μM) was added to a mixture of MeOH/pH 7 buffer ([PO4^3−]=5 mM) (5:95) (4.0 mL), and the samples were exposed to ozone (˜5 μM) at 24° C. followed by 1 hour incubation at 37° C. before fluorescence measurement.

[3] = Time-dependence of the conversion of compound 4 to compound 7; settings: 37° C.
Description: Time-dependence of the conversion of compound 4 to compound 7 in buffer. Solution A ([compound 4]final=12.5 μM) was added to a mixture of MeOH/pH 7 buffer ([PO4^3−]=5 mM) (5:95) (4.0 mL), and the sample was exposed to ozone (˜5 μM) at 24° C. followed by incubation at 37° C. Aliquots of the reaction mixture were taken out at various times for fluorescence measurement (FIG. S6). The conversion of compound 4 to compound 7 requires 60 minutes for completion (presumably the β-elimination is the rate determining step because the formation and fragmentation of molozonides are extremely rapid), but 10-15 minutes is sufficient to observe fluorescence signal.
FIG. 7 illustrates time-dependence of the conversion of compound 4 to compound 7 in cell culture media at 37° C. […]. Solution A ([compound 4]final=12.5 μM) was added to a mixture of 10% FBS in RPMI-1640 cell culture media/pH 7 buffer ([PO4^3−]=5 mM) (1:3) (4.0 mL), and the sample was exposed to ozone (˜5 μM) at 24° C. followed by incubation at 37° C. Aliquots of the reaction mixture were taken out at various times for fluorescence measurement (FIG. 8). The conversion of compound 4 to compound 7 requires 15-20 minutes for completion, but <5 minutes is sufficient to observe fluorescence signal. Although the exact mechanism of this enhancement is not known, catalysis of a β-elimination by action of bovine serum albumin has been previously reported.

[4] = 10% FBS in RPMI-1640 cell culture media/pH 7 buffer (1:3)
[5] = MeOH/pH 7 buffer (5:95), ozone ~5 μM

**Q.** For `C=CCCOc1cc2oc3cc(=O)c(Cl)cc-3c(-c3ccccc3CO)c2cc1Cl` [compound 4], which “compound 7 generated on paper strip” value [1] is on record?
**A.** 0.95 nmol

**Q.** What about the “fluorescent intensity at 523 nm, Sample A (no ROS)” value ([2]; 12.5 μM sensor, 5:95 MeOH/pH 7 buffer, no ozone (background)) of the same molecule?
**A.** 0.35 a. u.×10^5

**Q.** And the “fluorescent intensity at 523 nm, Sample B (ozone)” value ([2]; 12.5 μM sensor, 5:95 MeOH/pH 7 buffer, ozone at 24° C. then 1 hour at 37° C.)?
**A.** 28 a. u.×10^5

**Q.** What about the “signal-to-background (S/B)” value ([2]; 5:95 MeOH/pH 7 buffer, ozone at 24° C. then 1 hour at 37° C.) of the same molecule?
**A.** 80

**Q.** And the “signal-to-background (S/B)” value ([2]; mixture of pH 7 buffer and RPMI-1640 cell culture media (3:1))?
**A.** 104

**Q.** And the “time required for completion of conversion of compound 4 to compound 7” value [3, 4]?
**A.** 15 to 20 min

**Q.** And the “time sufficient to observe fluorescence signal” value [3, 4]?
**A.** < 5 min

**Q.** What about the “time required for completion of conversion of compound 4 to compound 7” value [3, 5] of the same molecule?
**A.** 60 min

**Q.** What about the “time sufficient to observe fluorescence signal” value [3, 5] of the same molecule?
**A.** 10 to 15 min
